From patent US7638535B2, “4-(aminomethyl)-piperidine benzamides as 5HT4-antagonists” (Janssen Pharmaceutica N.V., priority 2003, dated 2009)

Experiments:
[1] = Metabolic stability: % metabolism after 60 minutes incubation with active liver microsomes; assay type: in vitro ADME; details: compound 5 μM, microsomes 1 mg/ml, NADPH-generating system, 60 minutes at 37 degrees Celsius
Method: Sub-cellular tissue preparations were made according to Gorrod et al. (Xenobiotica 5:453-462, 1975) by centrifugal separation after mechanical homogenization of tissue. Liver tissue was rinsed in ice-cold 0.1 M Tris-HCl (pH 7.4) buffer to wash excess blood. Tissue was then blotted dry, weighed and chopped coarsely using surgical scissors. The tissue pieces were homogenized in 3 volumes of ice-cold 0.1 M phosphate buffer (pH 7.4).
Tissue homogenates were centrifuged at 9000×g for 20 minutes at 4° C. The resulting supernatant was stored at −80° C. and is designated ‘S9’.
The S9 fraction can be further centrifuged at 100.000×g for 60 minutes (4° C.). The resulting supernatant was carefully aspirated, aliquoted and designated ‘cytosol’. The pellet was re-suspended in 0.1 M phosphate buffer (pH 7.4) in a final volume of 1 ml per 0.5 g original tissue weight and designated ‘microsomes’.
All sub-cellular fractions were aliquoted, immediately frozen in liquid nitrogen and stored at −80° C. until use.
For the samples to be tested, the incubation mixture contained PBS (0.1M), compound (5 μM), microsomes (1 mg/ml) and a NADPH-generating system (0.8 mM glucose-6-phosphate, 0.8 mM magnesium chloride and 0.8 Units of glucose-6-phosphate dehydrogenase). Control samples contained the same material but the microsomes were replaced by heat inactivated (10 minutes at 95 degrees Celsius) microsomes. Recovery of the compounds in the control samples was always 100%.
The mixtures were preincubated for 5 minutes at 37 degrees Celsius. The reaction was started at time point zero (t=0) by addition of 0.8 mM NADP and the samples were incubated for 60 minutes (t=60). The reaction was terminated by the addition of 2 volumes of DMSO. Then the samples were centrifuged for 10 minutes at 900×g and the supernatants were stored at room temperature for no longer as 24 hours before analysis. All incubations were performed in duplo. Analysis of the supernatants was performed with LC-MS analysis. Elution of the samples was performed on a Xterra MS C18 (50×4.6 mm, 5 μm, Waters, US). An Alliance 2790 (Supplier: Waters, US) HPLC system was used. Elution was with buffer A (25 mM ammoniumacetate (pH 5.2) in H2O/acetonitrile (95/5)), solvent B being acetonitrile and solvent C methanol at a flow rate of 2.4 ml/min. The gradient employed was increasing the organic phase concentration from 0% over 50% B and 50% C in 5 min up to 100% B in 1 minute in a linear fashion and organic phase concentration was kept stationary for an additional 1.5 minutes. Total injection volume of the samples was 25 μl.
A Quatro triple quadrupole mass spectrometer fitted with and ESP source was used as detector. The source and the desolvation temperature were set at 120 and 350° C. respectively and nitrogen was used as nebuliser and drying gas. Data were acquired in positive scan mode (single ion reaction). Cone voltage was set at 10 V and the dwell time was 1 second.
Metabolic stability was expressed as % metabolism of the compound after 60 minutes (equation given as example) of incubation in the presence of active microsomes (E(act))

h5-HT4b = molecular target: T1, h5-HT4b (Homo sapiens, UniProt Q13639); experiment: 5HT4 antagonism: [3H]GR113808 binding to membranes of h5-HT4b-HEK 293 clone 9 cells; details: displacement of [3H]GR113808 0.1 nM, h5-HT4b-HEK 293 membranes, 30 min at 25° C.; read-out: pIC50 (5HT4 antagonistic data) (converted)
T1 construct: expressed in transfected cells; host or cells: HEK 293 (clone 9), membrane preparation
T1 sequence (Q13639 whole entry): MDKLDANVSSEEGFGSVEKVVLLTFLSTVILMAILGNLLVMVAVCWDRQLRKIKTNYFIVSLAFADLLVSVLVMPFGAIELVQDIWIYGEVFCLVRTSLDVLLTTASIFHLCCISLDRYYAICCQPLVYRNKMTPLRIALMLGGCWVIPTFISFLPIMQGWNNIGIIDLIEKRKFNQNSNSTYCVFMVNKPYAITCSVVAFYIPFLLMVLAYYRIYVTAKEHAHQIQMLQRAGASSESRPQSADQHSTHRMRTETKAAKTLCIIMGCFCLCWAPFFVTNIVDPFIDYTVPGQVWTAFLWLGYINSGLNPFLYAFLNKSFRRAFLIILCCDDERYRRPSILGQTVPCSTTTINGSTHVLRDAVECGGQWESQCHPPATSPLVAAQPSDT
Summary of the method: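 Membranes from h5-HT4b-HEK 293 clone 9 cells were incubated with [3H]GR113808 (0.1 nM as added) in 50 mM HEPES-NaOH pH 7.4 for 30 min at 25 °C. Non-specific binding was defined with a 5-HT4 agonist. Bound radioligand was separated by filtration over PEI-soaked GF/B filters.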

| melting point | % metabolised compound (compounds of present invention) [1] | IC50 (h5-HT4b) | Structure (SMILES) |
| --- | --- | --- | --- |
|  | 3% | 19.5 nM | COc1cc2c(c(C(=O)NC[C@@H]3CCN(CCCO)C[C@H]3O)c1)OCCCO2 [compound 185] |
|  | 18% | 11.5 nM | COc1cc2c(c(C(=O)NC[C@@H]3CCN(CCC4OCCO4)C[C@H]3O)c1)OCCCO2 [compound 187] |
|  | 4% | 12.9 nM | COCCCN1CC[C@@H](CNC(=O)c2cc(OC)cc3c2OCCCO3)[C@H](O)C1 [compound 87] |
|  | 9% | 3.09 nM | COCCCN1CC[C@@H](CNC(=O)c2cc(C)cc3c2OCCCO3)[C@H](O)C1 (single isomer, unassigned) [compound 162] |
|  | 24% | 0.501 nM | Cc1cc2c(c(C(=O)NC[C@@H]3CCN(CCCC4(C)OCCO4)C[C@H]3O)c1)OCCCO2 [compound 227] |
|  | 6% | 16.2 nM | COCc1cc2c(c(C(=O)NC[C@@H]3CCN(CC4CCCO4)C[C@H]3O)c1)OCCCO2 (some centres unmarked) [compound 125] |
|  | 4% | 2 nM | Cc1cc2c(c(C(=O)NC[C@@H]3CCN(CCCO)C[C@H]3O)c1)OCCCO2 [compound 168] |
|  | 0% | 5.01 nM | Cc1cc2c(c(C(=O)NC[C@@H]3CCN(CC4CCCO4)C[C@H]3O)c1)OCCCO2 (some centres unmarked) [compound 186] |
|  | 11% | 2.29 nM | Cc1cc2c(c(C(=O)NC[C@@H]3CCN(CCC4OCCO4)C[C@H]3O)c1)OCCCO2 [compound 163] |

Second part, the compound before the results:

| Structure (SMILES) | melting point | % metabolised compound (compounds of present invention) [1] | IC50 (h5-HT4b) |
| --- | --- | --- | --- |
| Cc1cc2c(c(C(=O)NC[C@@H]3CCN(CCCC(N)=O)C[C@H]3O)c1)OCCCO2 [compound 197] | 136 °C |  |  |
| N#Cc1cc2c(c(C(=O)NC[C@@H]3CCN(CCCO)C[C@H]3O)c1)OCCCO2 [compound 165] |  | 1% | 15.8 nM |
| N#CCCCN1CC[C@@H](CNC(=O)c2cc(C#N)cc3c2OCCO3)[C@H](O)C1 [compound 246] |  | 7% | 12.6 nM |
| CCNc1cc2c(c(C(=O)NC[C@@H]3CCN(CCCOC)C[C@H]3O)c1)OCCCO2 [compound 177] |  | 4% | 108 nM |
| CCCCN1CC[C@@H](CNC(=O)c2cc(C#N)cc3c2OCCCO3)[C@H](O)C1 [compound 159] |  | 22% | 5.01 nM |
| Cc1cc2c(c(C(=O)NC[C@@H]3CCN(CCOCCO)C[C@H]3O)c1)OCCCO2 [compound 211] |  | 13% | 2.95 nM |
| CC(=O)CCCN1CC[C@@H](CNC(=O)c2cc(C)cc3c2OCCCO3)[C@H](O)C1 [compound 229] |  | 12% | 0.55 nM |
| CCCCN1CC[C@@H](CNC(=O)c2cc(CC#N)cc3c2OCCCO3)[C@H](O)C1 [compound 183] |  | 10% | 3.47 nM |
| COCCCN1CC[C@@H](CNC(=O)c2cc(C#N)cc3c2OCCCO3)[C@H](O)C1 [compound 158] |  | 5% | 10.2 nM |
| Cc1cc2c(c(C(=O)NC[C@@H]3CCN(CCCCO)C[C@H]3O)c1)OCCCO2 [compound 225] |  | 14% | 0.759 nM |
| CNCCCN1CC[C@@H](CNC(=O)c2cc(NC)cc3c2OCCCO3)[C@H](O)C1 (hydrate or solvate) [compound 81] | > 130 °C |  |  |
| COCCCN1CC[C@@H](CNC(=O)c2cc(C#N)cc3c2OCCCO3)[C@H](O)C1 [compound 202] |  | 8% | 4.37 nM |
| Cc1cc2c(c(C(=O)NC[C@@H]3CCN(CCCCO)C[C@H]3O)c1)OCCO2 [compound 228] |  | 6% | 0.398 nM |
| COCCCN1CC[C@@H](CNC(=O)c2cc(C#N)cc3c2OCCO3)[C@H](O)C1 [compound 247] |  | 12% | 3.98 nM |
